These are literature values, as cited in patent US8962595B2, “Compositions of small molecule therapeutics” (Nexmed Holdings, Inc., priority 2010, dated 2015).

For this series the following is noted: water.

Structures are written as SMILES.

In the case of `NS(=O)(=O)c1cc2c(cc1Cl)N=CNS2(=O)=O` [Chlorothiazide, chlorothiazide], the “Sol. H2O (reported solubility from the literature)” value was 3000 µg/mL.
